# According to ChEMBL document CHEMBL5252638, “Novel triphenylphosphonium amphiphilic conjugates of glycerolipid type: synthesis, cytotoxic and antibacterial activity, and targeted cancer cell delivery” (RSC Med Chem, 2023):
# Legend:
# Enterococcus faecalis [1] = assay: Bactericidal activity against Enterococcus faecalis ATCC 29212 by serial microdilution method; format: functional
# MCF7 = assay: Cytotoxicity against human MCF7 cells assessed as number of viable cells measured after 48 hrs by MTT based colorimetric assay; format: functional, cell-based; settings: MCF7, 48 h
# [2] = Selectivity index, ratio of IC50 for human WI-38 cells to IC50 for human PC-3 cells; format: toxicity; settings: WI-38 cells and PC-3 cells, read-out: Ratio IC50
# Homo sapiens [3] = organism: Homo sapiens; assay: Selectivity index, ratio of IC50 for human WI-38 cells to IC50 for human SK-OV-3 cells
# Bacillus cereus [4] = assay: Antimicrobial activity against Bacillus cereus ATCC 10702 NCTC 8035 by serial microdilution method; format: functional
# SK-OV-3 = assay: Cytotoxicity against human SK-OV-3 cells assessed as number of viable cells measured after 48 hrs by MTT based colorimetric assay; format: functional, cell-based; settings: SK-OV-3, 48 h
# DU-145 = assay: Cytotoxicity against human DU-145 cells assessed as number of viable cells measured after 48 hrs by MTT based colorimetric assay; format: functional, cell-based; settings: DU-145, 48 h
# Homo sapiens [5] = organism: Homo sapiens; assay: Selectivity index, ratio of IC50 for human WI-38 cells to IC50 for human PANC-1 cells
# Staphylococcus aureus [6] = assay: Bactericidal against Staphylococcus aureus ATCC 6538 P FDA 209P by serial microdilution method; format: functional
# A549 = assay: Cytotoxicity against human A549 cells assessed as number of viable cells measured after 48 hrs by MTT based colorimetric assay; format: functional, cell-based; settings: A549, 48 h
# Homo sapiens [7] = organism: Homo sapiens; assay: Selectivity index, ratio of IC50 for human WI-38 cells to IC50 for human HuTu80 cells
# [8] = Cytotoxicity against human WI-38 cells assessed as number of viable cells measured after 48 hrs by MTT based colorimetric assay; format: toxicity, cell-based
# [9] = Cytotoxicity against human Chang liver cells assessed as number of viable cells measured after 48 hrs by MTT based colorimetric assay; format: toxicity, cell-based
# PC-3 = assay: Cytotoxicity against human PC-3 cells assessed as number of viable cells measured after 48 hrs by MTT based colorimetric assay; format: functional, cell-based; settings: PC-3, 48 h
# Escherichia coli [10] = assay: Bactericidal activity against Escherichia coli ATCC 25922 by serial microdilution method; format: functional
# Homo sapiens [11] = organism: Homo sapiens; assay: Selectivity index, ratio of IC50 for human Chang liver cells to IC50 for human DU-145 cells
# Homo sapiens [12] = organism: Homo sapiens; assay: Selectivity index, ratio of IC50 for human WI-38 cells to IC50 for human HelaM cells
# M-HeLa = assay: Cytotoxicity against human HelaM cells assessed as number of viable cells measured after 48 hrs by MTT based colorimetric assay; format: functional, cell-based
# T98G = assay: Cytotoxicity against human T98G cells assessed as number of viable cells measured after 48 hrs by MTT based colorimetric assay; format: functional, cell-based
# [13] = Selectivity index, ratio of IC50 for human WI-38 cells to IC50 for human MCF7 cells; format: toxicity; settings: WI-38 cells and MCF7 cells, read-out: Ratio IC50
# HepG2 = assay: Cytotoxicity against human HepG2 cells assessed as number of viable cells measured after 48 hrs by MTT based colorimetric assay; format: functional, cell-based; settings: HepG2, 48 h
# HuTu80 [14] = assay: Cytotoxicity against human HuTu80 cells assessed as number of viable cells measured after 48 hrs by MTT based colorimetric assay; format: functional, cell-based; settings: HuTu80, 48 h
# Escherichia coli [15] = assay: Antimicrobial activity against Escherichia coli ATCC 25922 by serial microdilution method; format: functional
# Staphylococcus aureus [16] = assay: Antimicrobial activity against Staphylococcus aureus ATCC 6538 P FDA 209P by serial microdilution method; format: functional
# PANC-1 = assay: Cytotoxicity against human PANC-1 cells assessed as number of viable cells measured after 48 hrs by MTT based colorimetric assay; format: functional, cell-based; settings: PANC-1, 48 h
# HuTu80 [17] = assay: Induction of ROS production in human HuTu80 cells assessed as increase in fluorescence intensity at 10 uM measured after 48 hrs by flow cytometry based analysis (reference value: 380); format: functional
# HuTu80 [18] = assay: Induction of cell cycle arrest in human HuTu80 cells assessed as accumulation of cell at G2/M phase at 5 uM measured after 48 hrs by propidium iodide staining based analysis (reference value: 18.7%); format: functional
# HuTu80 [19] = assay: Induction of cell cycle arrest in human HuTu80 cells assessed as accumulation of cell at G1/G0 phase at 5 uM measured after 48 hrs by propidium iodide staining based analysis (reference value: 72%); format: functional
# HuTu80 [20] = assay: Induction of mitochondrial membrane potential loss in human HuTu80 cells assessed as J-aggregates red fluorescence intensity at 10 uM incubated for 24 hrs by JC10 staining based flow cytometry method (reference value: 94.4%); format: functional
# HuTu80 [21] = assay: Induction of mitochondrial membrane potential loss in human HuTu80 cells assessed as J-monomer green fluorescence intensity at 10 uM incubated for 24 hrs by JC10 staining based flow cytometry method (reference value: 5.7%); format: functional
# HuTu80 [22] = assay: Induction of apoptosis in human HuTu80 cells assessed as necrotic cells at 10 uM incubated for 48 hrs by annexin V FITC/propidium iodide staining based flow cytometry analysis (reference value: 4.56%); format: functional
# HuTu80 [23] = assay: Induction of cell cycle arrest in human HuTu80 cells assessed as accumulation of cell at S phase at 5 uM measured after 48 hrs by propidium iodide staining based analysis (reference value: 8.1%); format: functional
# HuTu80 [24] = assay: Induction of apoptosis in human HuTu80 cells assessed as viable cells at 5 uM incubated for 48 hrs by annexin V FITC/propidium iodide staining based flow cytometry analysis (reference value: 93.71%); format: functional; settings: read-out: Activity
# HuTu80 [25] = assay: Induction of apoptosis in human HuTu80 cells assessed as early apoptotic cells at 5 uM incubated for 48 hrs by annexin V FITC/propidium iodide staining based flow cytometry analysis (reference value: 1.74%); format: functional
# HuTu80 [26] = assay: Induction of mitochondrial membrane potential loss in human HuTu80 cells assessed as J-monomer green fluorescence intensity at 5 uM incubated for 24 hrs by JC10 staining based flow cytometry method (reference value: 5.7%); format: functional
# Homo sapiens [27] = organism: Homo sapiens; assay: Selectivity index, ratio of IC50 for human Chang liver cells to IC50 for human MCF7 cells
# HuTu80 [28] = assay: Induction of ROS production in human HuTu80 cells assessed as increase in fluorescence intensity at 5 uM measured after 48 hrs by flow cytometry based analysis (reference value: 380); format: functional
# HuTu80 [29] = assay: Induction of apoptosis in human HuTu80 cells assessed as necrotic cells at 5 uM incubated for 48 hrs by annexin V FITC/propidium iodide staining based flow cytometry analysis (reference value: 4.56%); format: functional
# HuTu80 [30] = assay: Induction of mitochondrial membrane potential loss in human HuTu80 cells assessed as J-aggregates red fluorescence intensity at 5 uM incubated for 24 hrs by JC10 staining based flow cytometry method (reference value: 94.4%); format: functional
# Enterococcus faecalis [31] = assay: Antimicrobial activity against Enterococcus faecalis ATCC 29212 by serial microdilution method; format: functional
# HuTu80 [32] = assay: Induction of apoptosis in human HuTu80 cells assessed as late apoptotic cells at 10 uM incubated for 48 hrs by annexin V FITC/propidium iodide staining based flow cytometry analysis (reference value: 0.00%); format: functional
# Homo sapiens [33] = organism: Homo sapiens; assay: Selectivity index, ratio of IC50 for human Chang liver cells to IC50 for human HelaM cells
# HuTu80 [34] = assay: Induction of apoptosis in human HuTu80 cells assessed as early apoptotic cells at 10 uM incubated for 48 hrs by annexin V FITC/propidium iodide staining based flow cytometry analysis (reference value: 1.74%); format: functional
# HuTu80 [35] = assay: Induction of cell cycle arrest in human HuTu80 cells assessed as accumulation of cell at S phase at 10 uM measured after 48 hrs by propidium iodide staining based analysis (reference value: 8.1%); format: functional
# HuTu80 [36] = assay: Induction of cell cycle arrest in human HuTu80 cells assessed as accumulation of cell at G2/M phase at 10 uM measured after 48 hrs by propidium iodide staining based analysis (reference value: 18.7%); format: functional
# HuTu80 [37] = assay: Induction of apoptosis in human HuTu80 cells assessed as late apoptotic cells at 5 uM incubated for 48 hrs by annexin V FITC/propidium iodide staining based flow cytometry analysis (reference value: 0.00%); format: functional
# Homo sapiens [38] = organism: Homo sapiens; assay: Selectivity index, ratio of IC50 for human Chang liver cells to IC50 for human HuTu80 cells
# HuTu80 [39] = assay: Induction of cell cycle arrest in human HuTu80 cells assessed as accumulation of cell at G1/G0 phase at 10 uM measured after 48 hrs by propidium iodide staining based analysis (reference value: 72%); format: functional
# Homo sapiens [40] = organism: Homo sapiens; assay: Selectivity index, ratio of IC50 for human Chang liver cells to IC50 for human SK-OV-3 cells
# HuTu80 [41] = assay: Induction of apoptosis in human HuTu80 cells assessed as viable cells at 10 uM incubated for 48 hrs by annexin V FITC/propidium iodide staining based flow cytometry analysis (reference value: 93.71%); format: functional; settings: read-out: Activity
# Pseudomonas aeruginosa [42] = assay: Antimicrobial activity against Pseudomonas aeruginosa ATCC 9027 by serial microdilution method; format: functional
# Bacillus cereus [43] = assay: Bactericidal activity against Bacillus cereus ATCC 10702 NCTC 8035 by serial microdilution method; format: functional
# Pseudomonas aeruginosa [44] = assay: Bactericidal against Pseudomonas aeruginosa ATCC 9027 by serial microdilution method; format: functional
compound,measurement,setting,value
CCCCC/C=C\C/C=C\CCCCCCCC(=O)OC(COC(=O)CCCCCCC/C=C\CCCCCCCC)COC(=O)CCCC[P+](c1ccccc1)(c1ccccc1)c1ccccc1 (centres undefined),MBC,Enterococcus faecalis [1],30 µM
same,IC50,MCF7,25.4 µM
same,selectivity ratio,[2],1.4
same,Ratio IC50,Homo sapiens [3],1.9
same,MIC,Bacillus cereus [4],7.5 µM
same,IC50,SK-OV-3,21 µM
same,IC50,DU-145,19.2 µM
same,Ratio IC50,Homo sapiens [5],1.2
same,MBC,Staphylococcus aureus [6],7.5 µM
same,IC50,A549,54.4 µM
same,Ratio IC50,Homo sapiens [7],10.8
same,IC50 at 48 h,[8],40 µM
same,IC50 at 48 h,[9],36 µM
same,IC50,PC-3,27.8 µM
same,MBC,Escherichia coli [10],30 µM
same,Ratio IC50,Homo sapiens [11],1.9
same,Ratio IC50,Homo sapiens [12],1.2
same,IC50,M-HeLa,32.1 µM
same,IC50,T98G,73.8 µM
same,selectivity ratio,[13],1.6
same,IC50,HepG2,58.2 µM
same,IC50,HuTu80 [14],3.7 µM
same,MIC,Escherichia coli [15],30 µM
same,MIC,Staphylococcus aureus [16],7.5 µM
same,IC50,PANC-1,33.5 µM
CCCCC/C=C\C/C=C\CCCCCCCC(=O)OCC(O)COC(=O)CCCC[P+](c1ccccc1)(c1ccccc1)c1ccccc1.[Br-] (centres undefined),MBC,Enterococcus faecalis [1],80 µM
same,Flu intensity,HuTu80 [17],1700
same,IC50,MCF7,37.7 µM
same,Activity,HuTu80 [18],11%
same,Activity,HuTu80 [19],81%
same,Activity,HuTu80 [20],61.9%
same,MIC,Bacillus cereus [4],20 µM
same,IC50,SK-OV-3,39.4 µM
same,Activity,HuTu80 [21],38.1%
same,IC50,DU-145,49.1 µM
same,Activity,HuTu80 [22],18.56%
same,Activity,HuTu80 [23],5.7%
same,viability at 5 µM,HuTu80 [24],72.2%
same,Activity,HuTu80 [25],3.99%
same,MBC,Staphylococcus aureus [6],5 µM
same,IC50,A549,62.5 µM
same,Activity,HuTu80 [26],26.1%
same,Ratio IC50,Homo sapiens [27],1.7
same,IC50 at 48 h,[8],56.6 µM
same,IC50 at 48 h,[9],63 µM
same,Flu intensity,HuTu80 [28],1000
same,IC50,PC-3,63.9 µM
same,Activity,HuTu80 [29],10.7%
same,Activity,HuTu80 [30],73.9%
same,MIC,Enterococcus faecalis [31],20 µM
same,Activity,HuTu80 [32],19.59%
same,Ratio IC50,Homo sapiens [33],1.1
same,MBC,Escherichia coli [10],80 µM
same,Activity,HuTu80 [34],5.67%
same,Activity,HuTu80 [35],5.4%
same,Ratio IC50,Homo sapiens [11],1.3
same,Activity,HuTu80 [36],9.3%
same,IC50,M-HeLa,55.6 µM
same,Activity,HuTu80 [37],13.1%
same,Ratio IC50,Homo sapiens [38],6.6
same,IC50,T98G,98 µM
same,Activity,HuTu80 [39],82%
same,IC50,HepG2,76 µM
same,IC50,HuTu80 [14],9.5 µM
same,Ratio IC50,Homo sapiens [40],1.6
same,MIC,Escherichia coli [15],20 µM
same,viability at 10 µM,HuTu80 [41],56.2%
same,MIC,Staphylococcus aureus [16],5 µM
same,IC50,PANC-1,59 µM
CCn1cc(C(=O)O)c(=O)c2cc(F)c(N3CCNCC3)cc21 [NORFLOXACIN],MBC,Enterococcus faecalis [1],24.4 µM
same,MIC,Bacillus cereus [4],24.4 µM
same,MBC,Staphylococcus aureus [6],7.5 µM
same,MIC,Pseudomonas aeruginosa [42],12.1 µM
same,MBC,Bacillus cereus [43],24.4 µM
same,MIC,Enterococcus faecalis [31],24.4 µM
same,MBC,Pseudomonas aeruginosa [44],49 µM
same,MBC,Escherichia coli [10],24.4 µM
same,MIC,Escherichia coli [15],4.7 µM
same,MIC,Staphylococcus aureus [16],7.5 µM
